Measurements as given in patent publication US20100179209A1, “Pactimibe medicaments for preventing/treating a disease due to sebaceous gland dysfunction in humans or animals” (GALDERMA RESEARCH & DEVELOPMENT, priority 2007, published 2010).
pIC50: −log10 of the molar value.

Experiments:
[1] = test system: sebaceous glands; experiment: Study of the properties of pactimibe: sebum production by the sebaceous glands
[2] = test system: ACAT/SOAT enzyme; experiment: Measurement of ACAT/SOAT activity (NBD-cholesterol fluorescence assay in HepG2 cells); type: cell-based; conditions: NBD-cholesterol 1 μg/ml, incubation 6 h at 37° C., read-out: inhibition of cholesterol ester synthesis, IC50
From the text: Measurement of ACAT/SOAT Activity:
The objective of this test is to visualize the activity of the ACAT/SOAT enzyme on the synthesis of cholesterol esters.
The test is based on the following publication: “Identification of ACAT1- and ACAT2-specific inhibitors using a novel, cell based fluorescence assay: individual ACAT uniqueness”, J. Lipid Res., (2004) vol. 45, pages 378-386.
The principle of this test is based on the use of NBD-cholesterol, which is a cholesterol analogue of which the fluorescence is dependent on its environment. When said analogue is in a polar environment, it is weakly fluorescent, whereas in a non-polar environment, it is strongly fluorescent. Free NBD-cholesterol is localized in the cell membranes and is weakly fluorescent in this polar environment. When NBD-cholesterol is esterified by ACAT, the NBD-cholesterol ester is localized in non-polar lipid droplets and is therefore strongly fluorescent.
HepG2 cells are incubated in the presence of NBD-cholesterol (1 μg/ml) and of the test product in transparent-bottomed black 96-well plates at a rate of 30 000 cells per well. […] After the addition of 50 μl of lysis buffer (10 mM NaPO4, 1% Igepal), the plates are shaken for 5 min and read by fluorescence (excitation 490 nm, emission 540 nm) on the Fusion instrument (Perkin Elmer).

[3] = Study of the properties of pactimibe: toxicity
[4] = test system: sebum production; conditions: administration of isotretinoin, current treatment; cited from earlier work

Row | Structure (SMILES) | sebum production by the sebaceous glands [1] | pIC50 [2] | toxicity [3] | decrease of sebum production [4] | side effects [4]
1 | CCCCCCCCN1CCc2c(C)c(CC(=O)O)c(C)c(NC(=O)C(C)(C)C)c21 [pactimibe, N-(1-octyl-5-carboxymethyl-4,6-dimethylindolin-7-yl)-2,2-dimethylpropanamide] | reduce sebum production | 7.30 | not toxic |  | 
2 | CC1=C(/C=C/C(C)=C/C=C/C(C)=C\C(=O)O)C(C)(C)CCC1 [isotretinoin] |  |  |  | ~90% | considerable side effects
